Patent publication US20240059698A1 (Accutar Biotechnology Inc., priority 2022, published 2024)

What was measured:
Format in all cases: cell-based
[1] = tested on: HCC827-SVD cells (human EGFR exon 20 insertion mutant D770_N771insSVD); test: Cell growth inhibition (CellTiter-Glo), HCC827-SVD; conditions: 72 h, 3 days
Outline: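 HCC827 cells with endogenous EGFR knocked out and lentivirally expressing the insertion mutant (single clone) were seeded at 5000 cells/well in RPMI with 10% FBS. After overnight, compounds added; 3 days at 37 °C, then CellTiter-Glo luminescence.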

[2] = tested on: HCC827-YVMA cells (human ERBB2 exon20 insertion mutant A775_G776ins YVMA); test: Cell growth inhibition (CellTiter-Glo), HCC827-YVMA; conditions: 72 h, HCC827-YVMA cells, 3 days, CellTiter-Glo, read-out: Cell growth inhibition, GI50 (nM) HCC827-YVMA
Outline: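 HCC827 cells transduced with lentiviral codon-optimized mutant (ERBB2 A775_G776insYVMA or EGFR V769_D770insASV), endogenous EGFR knocked out by CRISPR, single clone selected. Cells seeded overnight in RPMI/10% FBS, then exposed to serially diluted compounds at 37 °C for 3 days; viability read by CellTiter-Glo luminescence.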

[3] = tested on: HCC827 cells; test: Cell growth inhibition (CellTiter-Glo), HCC827; conditions: Homo sapiens, 72 h, 3 days
Method: 2. Cell Growth Inhibition for HCC827, HCC827-SVD, HCC827-ASV, HCC827-YVMA, and A431.
HCC827(ATCC), HCC827-SVD, HCC827-ASV, and HCC827-YVMA cells were seeded in 96-well plates at 5000 cells/well in 90 μL of RPMI growth medium containing 10% FBS and 1% Penicillin Streptomycin. A431 (ATCC) cells were seeded in 96-well plates at 5000 cells/well in 90 μL of DMEM growth medium containing 10% FBS and 1% Penicillin Streptomycin. Cells were incubated at 37° C. overnight and then administered with 10 μL 10× test compounds prepared in the growth medium at various concentrations. After administration of the compounds, cells were incubated at 37° C. for 3 days. Before the CellTiter-Glo assay, the plates were equilibrated at room temperature for approximately 30 minutes. 100 ul of CellTiter-Glo reagent (Promega) was added to each well. The plates were then incubated at room temperature for 10 minutes and luminescence was recorded by the EnSight® multimode plate reader (PerkinElmer). Table 7 listed selected compounds in cellular growth assay.

SMILES: C=CC(=O)N1CCC(c2c[nH]c3ncnc(Nc4ccc(OCc5ccc(OC)cn5)c(Cl)c4)c23)CC1 [Compound 99, 1-(4-(4-((3-chloro-4-((5-methoxypyridin-2-yl)methoxy)phenyl)amino)-7H-pyrrolo[2,3-d]pyrimidin-5-yl)piperidin-1-yl)prop-2-en-1-one]
- GI50 [1]: 50 to 200 nM
- GI50 [2]: < 50 nM
- GI50 [3]: 50 to 200 nM

SMILES: C=CC(=O)N1CCC(c2c[nH]c3ncnc(Nc4ccc(OCc5cc(C#N)ccn5)c(Cl)c4)c23)CC1 [Compound 100, 2-((4-((5-(1-acryloylpiperidin-4-yl)-7H-pyrrolo[2,3-d]pyrimidin-4-yl)amino)-2-chlorophenoxy)methyl)isonicotinonitrile]
- GI50 [1]: < 50 nM
- GI50 [2]: < 50 nM
- GI50 [3]: < 50 nM

SMILES: C=CC(=O)N1CCC(c2c[nH]c3ncnc(Nc4ccc(OCc5ccc(C#N)cn5)c(Cl)c4)c23)CC1 [Compound 101, 6-((4-((5-(1-acryloylpiperidin-4-yl)-7H-pyrrolo[2,3-d]pyrimidin-4-yl)amino)-2-chlorophenoxy)methyl)nicotinonitrile]
- GI50 [1]: 50 to 200 nM
- GI50 [2]: 50 to 200 nM
- GI50 [3]: 50 to 200 nM

SMILES: C=CC(=O)N1CCC(c2c[nH]c3ncnc(Nc4ccc(OCc5cn6ccccc6n5)c(Cl)c4)c23)CC1 [Compound 102, 1-(4-(4-((3-chloro-4-(imidazo[1,2-a]pyridin-2-ylmethoxy)phenyl)amino)-7H-pyrrolo[2,3-d]pyrimidin-5-yl)piperidin-1-yl)prop-2-en-1-one]
- GI50 [1]: 50 to 200 nM
- GI50 [2]: < 50 nM
- GI50 [3]: 50 to 200 nM

SMILES: C=CC(=O)N1CCC(c2c[nH]c3ncnc(Nc4ccc(OCc5nc(C(F)(F)F)cs5)c(Cl)c4)c23)CC1 [Compound 103, 1-(4-(4-((3-chloro-4-((4-(trifluoromethyl)thiazol-2-yl)methoxy)phenyl)amino)-7H-pyrrolo[2,3-d]pyrimidin-5-yl)piperidin-1-yl)prop-2-en-1-one]
- GI50 [1]: 50 to 200 nM
- GI50 [2]: 50 to 200 nM
- GI50 [3]: 50 to 200 nM

SMILES: C=CC(=O)N1CCC(c2c[nH]c3ncnc(Nc4ccc(Oc5ccnc(Nc6ccccc6)c5)cc4F)c23)CC1 [Compound 104, 1-(4-(4-((2-fluoro-4-((2-(phenylamino)pyridin-4-yl)oxy)phenyl)amino)-7H-pyrrolo[2,3-d]pyrimidin-5-yl)piperidin-1-yl)prop-2-en-1-one]
- GI50 [1]: 50 to 200 nM
- GI50 [2]: < 50 nM
- GI50 [3]: 200 to 1000 nM

SMILES: C=CC(=O)N1CCC(c2c[nH]c3ncnc(Nc4ccc(OCc5ccccn5)cc4F)c23)CC1 [Compound 105, 1-(4-(4-((2-fluoro-4-(pyridin-2-ylmethoxy)phenyl)amino)-7H-pyrrolo[2,3-d]pyrimidin-5-yl)piperidin-1-yl)prop-2-en-1-one]
- GI50 [1]: < 50 nM
- GI50 [2]: < 50 nM
- GI50 [3]: < 50 nM

SMILES: C=CC(=O)N1CCC(c2c[nH]c3ncnc(Nc4ccc(OCc5ccccn5)c(Cl)c4F)c23)CC1 [Compound 106, 1-[4-[4-[3-chloro-2-fluoro-4-(2-pyridylmethoxy)anilino]-7H-pyrrolo[2,3-d]pyrimidin-5-yl]-1-piperidyl]prop-2-en-1-one]
- GI50 [1]: < 50 nM
- GI50 [2]: < 50 nM
- GI50 [3]: < 50 nM

SMILES: C=CC(=O)N1CCC(c2c[nH]c3ncnc(Nc4ccc(Oc5ccnc(N6CC(C(F)(F)F)C6)c5)cc4F)c23)CC1 [Compound 107, 1-(4-(4-((2-fluoro-4-((2-(3-(trifluoromethyl)azetidin-1-yl)pyridin-4-yl)oxy)phenyl)amino)-7H-pyrrolo[2,3-d]pyrimidin-5-yl)piperidin-1-yl)prop-2-en-1-one]
- GI50 [1]: 200 to 1000 nM
- GI50 [2]: 50 to 200 nM
- GI50 [3]: > 1000 nM

SMILES: C=CC(=O)N1CCC(c2c[nH]c3ncnc(Nc4ccc(OCc5cnn(C(C)C)c5)c(Cl)c4)c23)CC1 [Compound 108, 1-(4-(4-((3-chloro-4-((1-isopropyl-1H-pyrazol-4-yl)methoxy)phenyl)amino)-7H-pyrrolo[2,3-d]pyrimidin-5-yl)piperidin-1-yl)prop-2-en-1-one]
- GI50 [1]: > 1000 nM
- GI50 [2]: > 1000 nM
- GI50 [3]: 200 to 1000 nM

SMILES: C=CC(=O)N1CCC(c2c[nH]c3ncnc(Nc4ccc(Oc5ccnc(NC6CCC6)c5)cc4F)c23)CC1 [Compound 109, 1-[4-[4-[4-[[2-(cycloButylamino)-4-pyridyl]oxy]-2-fluoro-anilino]-7H-pyrrolo[2,3-d]pyrimidin-5-yl]-1-piperidyl]prop-2-en-1-one]
- GI50 [1]: 50 to 200 nM
- GI50 [2]: < 50 nM
- GI50 [3]: < 50 nM

SMILES: C=CC(=O)N1CCC(c2c[nH]c3ncnc(Nc4ccc(OCc5ccc(C(F)(F)F)cn5)c(Cl)c4)c23)CC1 [Compound 112, 1-(4-(4-((3-chloro-4-((5-(trifluoromethyl)pyridin-2-yl)methoxy)phenyl)amino)-7H-pyrrolo[2,3-d]pyrimidin-5-yl)piperidin-1-yl)prop-2-en-1-one]
- GI50 [1]: 200 to 1000 nM
- GI50 [2]: 50 to 200 nM
- GI50 [3]: 50 to 200 nM

SMILES: C=CC(=O)N1CCC(c2c[nH]c3ncnc(Nc4ccc(OCc5ccncn5)c(Cl)c4)c23)CC1 [Compound 114, 1-(4-(4-((3-chloro-4-(pyrimidin-4-ylmethoxy)phenyl)amino)-7H-pyrrolo[2,3-d]pyrimidin-5-yl)piperidin-1-yl)prop-2-en-1-one]
- GI50 [1]: < 50 nM
- GI50 [2]: < 50 nM
- GI50 [3]: < 50 nM

SMILES: C=CC(=O)N1CCC(c2c[nH]c3ncnc(Nc4ccc(Oc5ccnc(-n6ccc(OC(C)C)n6)c5)cc4F)c23)CC1 [Compound 115, 1-(4-(4-((2-fluoro-4-((2-(3-isopropoxy-1H-pyrazol-1-yl)pyridin-4-yl)oxy)phenyl)amino)-7H-pyrrolo[2,3-d]pyrimidin-5-yl)piperidin-1-yl)prop-2-en-1-one]
- GI50 [1]: 50 to 200 nM
- GI50 [2]: 50 to 200 nM
- GI50 [3]: 50 to 200 nM

SMILES: C=CC(=O)N1CCC(c2c[nH]c3ncnc(Nc4ccc(OCc5cc(Cl)ccn5)c(Cl)c4)c23)CC1 [Compound 117, 1-(4-(4-((3-chloro-4-((4-chloropyridin-2-yl)methoxy)phenyl)amino)-7H-pyrrolo[2,3-d]pyrimidin-5-yl)piperidin-1-yl)prop-2-en-1-one]
- GI50 [1]: < 50 nM
- GI50 [2]: < 50 nM
- GI50 [3]: < 50 nM

SMILES: C=CC(=O)N1CCC(c2c[nH]c3ncnc(Nc4ccc(OCc5ccc(F)cn5)c(Cl)c4)c23)CC1 [Compound 118, 1-(4-(4-((3-chloro-4-((5-fluoropyridin-2-yl)methoxy)phenyl)amino)-7H-pyrrolo[2,3-d]pyrimidin-5-yl)piperidin-1-yl)prop-2-en-1-one]
- GI50 [1]: < 50 nM
- GI50 [2]: < 50 nM
- GI50 [3]: < 50 nM

SMILES: C=CC(=O)N1CCC(c2c[nH]c3ncnc(Nc4ccc(OCc5cccnn5)c(Cl)c4)c23)CC1 [Compound 120, 1-[4-[4-[3-chloro-4-(pyridazin-3-ylmethoxy)anilino]-7H-pyrrolo[2,3-d]pyrimidin-5-yl]-1-piperidyl]prop-2-en-1-one]
- GI50 [1]: < 50 nM
- GI50 [2]: < 50 nM
- GI50 [3]: < 50 nM

SMILES: C=CC(=O)N1CCC(c2c[nH]c3ncnc(Nc4ccc(OCc5cccnc5)c(Cl)c4)c23)CC1 [Compound 121, 1-(4-(4-((3-chloro-4-(pyridin-3-ylmethoxy)phenyl)amino)-7H-pyrrolo[2,3-d]pyrimidin-5-yl)piperidin-1-yl)prop-2-en-1-one]
- GI50 [1]: < 50 nM
- GI50 [2]: < 50 nM
- GI50 [3]: < 50 nM

SMILES: C=CC(=O)N1CCC(c2c[nH]c3ncnc(Nc4ccc(Oc5ccnc(N6CCC(O)(C(F)(F)F)CC6)c5)cc4F)c23)CC1 [Compound 122, 1-(4-(4-((2-fluoro-4-((2-(4-hydroxy-4-(trifluoromethyl)piperidin-1-yl)pyridin-4-yl)oxy)phenyl)amino)-7H-pyrrolo[2,3-d]pyrimidin-5-yl)piperidin-1-yl)prop-2-en-1-one]
- GI50 [1]: 200 to 1000 nM
- GI50 [2]: 200 to 1000 nM
- GI50 [3]: > 1000 nM

SMILES: C=CC(=O)N1CCC(c2c[nH]c3ncnc(Nc4ccc(Oc5ccnc(-c6cnn(C)c6)c5)cc4F)c23)CC1 [Compound 125, 1-(4-(4-((2-fluoro-4-((2-(1-methyl-1H-pyrazol-4-yl)pyridin-4-yl)oxy)phenyl)amino)-7H-pyrrolo[2,3-d]pyrimidin-5-yl)piperidin-1-yl)prop-2-en-1-one]
- GI50 [1]: 200 to 1000 nM
- GI50 [2]: 200 to 1000 nM
- GI50 [3]: > 1000 nM

SMILES: C=CC(=O)N1CCC(c2c[nH]c3ncnc(Nc4ccc(OCc5ccc(Cl)cn5)c(Cl)c4)c23)CC1 [Compound 126, 1-(4-(4-((3-chloro-4-((5-chloropyridin-2-yl)methoxy)phenyl)amino)-7H-pyrrolo[2,3-d]pyrimidin-5-yl)piperidin-1-yl)prop-2-en-1-one]
- GI50 [1]: < 50 nM
- GI50 [2]: < 50 nM
- GI50 [3]: < 50 nM

SMILES: C=CC(=O)N1CCC(c2c[nH]c3ncnc(Nc4ccc(OCc5ccncc5)c(Cl)c4)c23)CC1 [Compound 127, 1-(4-(4-((3-chloro-4-(pyridin-4-ylmethoxy)phenyl)amino)-7H-pyrrolo[2,3-d]pyrimidin-5-yl)piperidin-1-yl)prop-2-en-1-one]
- GI50 [1]: < 50 nM
- GI50 [2]: < 50 nM
- GI50 [3]: 50 to 200 nM
